Here are results for three compounds from patent US20250205230A1 (priority 2022, published 2025).

Structures are written as SMILES. Converted amounts (≈) assume the structure as drawn. Read-outs that look alike come from different tables or passages of the source.

Data set [1] relates to TGEV (an alpha-coronavirus). Particulars: cited from earlier work.
A short description of the next data set: Lipophilicity (logD7.4). Particulars: for logD: pH 7.4.
Data set [2] relates to PERK. The class given is cell-based. Particulars: for increase in eIF2α phosphorylation: 20 μM, 0.1 MOI, lysed 24 h; for eIF2α phosphorylation (eIF2α-P relative to total eIF2α), in words: HEK293 infected at 0.1 MOI, 10 or 20 μM, lysed 24 hours post-infection.
The subject of data set [3] is VSVΔ51M. The class given is cell-based, vesicular stomatitis Indiana virus (VSV).
The subject of data set [4] is VSVΔ51M. The class given is cell-based, vesicular stomatitis Indiana virus (VSV). Particulars: 10 μM.
For the next data set, the system named is SARS-CoV-2. The format is cell-based.
Data set [5] relates to asialoglycoprotein receptor H2b. The data set can be described thus: Oligosaccharide maturation of H2b in transfected HEK293 cells (western blot). As to conditions: Endo H. The format is cell-based. In general terms: Immunoblotting shows a protein as a band on a membrane.
A further data set deals with ACE2. The data set can be described thus: Oligosaccharide maturation of ACE2 in transfected HEK293 cells (western blot). The format is cell-based. Particulars: Endo H or N-glycanase.
The subject of data set [6] is PERK. Put plainly: eIF2α phosphorylation in non-infected HEK293 cells. The class given is cell-based. Particulars: lysed 24 hours post-treatment.
The mark [7] stands for this setting: treatment began at the start of the infection.

For the compound `O=C(COc1ccc(Cl)cc1)NC1CCC(NC(=O)COc2ccc(Cl)cc2)CC1` (centres unmarked) [ISRIB], the “expression of TGEV viral proteins and viral titers” value in data set [1] is on record as “increased”.

Take `Oc1ccc(C=NNc2nc(-c3ccccc3)cc(-c3ccccc3)n2)cc1O` (racemic) [GLB7, 4-((2-(4,6-diphenylpyrimidin-2-yl)hydrazono)methyl)benzene-1,2-diol]: in “Lipophilicity (logD7.4)” (compared with MK-28), the “lipophilicity, in words” value is recorded as “decreased lipophilicity”. The logD – broadly, lipophilicity at a set pH, counting ionised and neutral species – in “Lipophilicity (logD7.4)” worked out at 3.6. Besides, in the data set “Solubility”, the solubility (in general, the dissolved amount per volume that the medium holds) was determined as 16 µM (≈ 6.12 µg/mL). For the same compound, the “solubility compared to MK-28” value in the data set “Solubility” (ratio GLB7 vs MK-28) is “more than 10 fold”. Also, the “increase in eIF2α phosphorylation” value in the data set with PERK [2] (setting [7]) is “about 1.5 fold”. Moreover, in the data set on PERK [2], the “eIF2α phosphorylation (eIF2α-P relative to total eIF2α), in words” value was “strong increase”. Besides, in the data set with VSVΔ51M [3], the “infectivity (VSV-G level), in words” value is on record as “major decrease in infectivity”. Moreover, the “decrease in infectivity (VSV-G relative to actin)” value in the data set on VSVΔ51M [3] (20 μM) was “about 3 fold”. Also, in the data set with VSVΔ51M [4], the “inhibition of replication, comparison between compounds” value was “greater inhibition than MK-28” and the “reduction of titer of infectious virions” value is “several orders of magnitude”.

In the data set “Lipophilicity (logD7.4)”, `CN(N=Cc1ccc(O)c(O)c1)c1nc(-c2ccccc2)cc(-c2ccccc2)n1` [MK-28, 4-((2-(4,6-diphenylpyrimidin-2-yl)-2-methylhydrazineylidene)methyl) benzene-1,2-diol] registered a logD of 4.5. In “Solubility”, this compound had a solubility of 1.4 µM (≈ 0.555 µg/mL). Also, the “reduction of SARS-CoV-2 replication (titer of infectious virions)” value with SARS-CoV-2 was 10- to 100 fold. In addition, the “effect on maturation of H2b” value in data set [5] is on record as “no effect”. In addition, the “increase in eIF2α phosphorylation” value in the data set on PERK [2] (treatment began 3 hours after the start of the infection) is on record as “about 4 fold”; in the data set on PERK [2] (setting [7]), “about 5 fold”; in the data set with PERK [6] (10 μM), “about 1.4 fold”; in the data set on PERK [6] (20 μM), “about 1.1 fold”. The “eIF2α phosphorylation (eIF2α-P relative to total eIF2α), in words” value in the data set with PERK [2] is “strong increase”. Further, in the data set with ACE2, the “effect on maturation of ACE2” value is given as “no effect”. Further, in the data set with VSVΔ51M [4], the “inhibition of replication, comparison between compounds” value is listed as “greater inhibition of replication than did GLB7”. The “reduction of titer of infectious virions” value in the data set on VSVΔ51M [4] is reported as “several orders of magnitude”.
